Experimental data as given in patent US8759481B2, “Peptide vaccines for cancers expressing tumor-associated antigens” (Oncotherapy Science, Inc., priority 2007, dated 2014).
Entries after “also recorded” stand apart in the source; their conditions may differ. Ends that are not written are not given here.

Experiments:
Format in all cases: cell-based, human
[1] = tested on: peptide-pulsed A24-LCL cells; assay: IFN-gamma ELISPOT assay (positive wells); conditions: HLA-A24 peptides; as compared to the control
Summary of the method: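 PBMC-derived DCs from HLA-A*2402 and/or A*0201 donors, pulsed with 20 micro g/ml peptide plus 3 micro g/ml beta 2-microglobulin, stimulated autologous CD8+ T cells three times (days 0, 7, 14). On day 21, responders were tested against peptide-pulsed A24-LCL or T2 cells by IFN-gamma ELISPOT. Values are reported as positive wells/wells tested; CTL lines confirmed by ELISA.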

[2] = tested on: COS7 transfected with full length KIF20A gene and HLA-A*2402; assay: Specific CTL activity against transfected target cells; conditions: CTL line or clone raised by the peptide, vs control transfectants
Experimental: (§1) Briefly, peptide-pulsed A24-LCL or T2 cell (1×10^4/well) was prepared as stimulator cells. Cultured Cells in 48 wells or CTL clones after limiting dilution were used as responder cells. IFN-gamma ELISPOT assay and ELISA assay were performed under manufacture procedure.
(§2) The cDNA encoding an open reading frame of target genes or HLA-A02 or HLA-A24 was amplified by PCR. The PCR-amplified product was cloned into pcDNA3.1 myc-His vector (Invitrogen). The plasmids were transfected into the target cells, HLA-A02 and HLA-A24-null normal human cell line COS7 or 293T using lipofectamine (Invitrogen) according to the manufacturer's recommended procedures. Alternatively, the plasmid contained the target genes were transfected into A24-LCL by electroporation using GenePulserII (Biorad). Briefly, 2.5×10^6 A24-LCL cells were pulsed with 10 mcg prasmid at 140V and 1000 micro F. After 2 days from transfection, the transfected cells were treated with Cell dissociation solution and used as the target cells for CTL activity assay.
The established CTL line raised against these peptides were examined for their ability to recognize the target cells expressing KIF20A and HLA-A*2402. […]

[3] = tested on: peptide-pulsed A24-LCL cells; assay: CTL line establishment, IFN-gamma ELISA; conditions: HLA-A24 peptides; vs target without peptide pulse
Summary of the method: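 CTL lines were expanded with MMC-inactivated B-lymphoblastoid feeders, 40 ng/ml anti-CD3 and IL-2 in AIM-V/5% AS. IFN-gamma ELISPOT identified specific wells, and ELISA determined established lines, using responders stimulated by peptide-pulsed A24-LCL or T2 cells at 1×10^4/well.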

[4] = tested on: MIAPaca2 cancer cell line; assay: 51Cr release cytotoxicity assay
Experimental: (§3) Cytotoxic activity was evaluated by a four-hour ^51Cr release assay. The target cells were pulsed with a 20 micro g/mL concentration of peptide overnight. The target cells were labeled with 100 micro Ci of Na2^51CrO4 at 37 degrees C. for one hour, and then washed three times with RPMI1640. The target cells (1×10^4/100 micro L) and 100 micro L of effector cells at various numbers with a total volume of 200 micro L were placed into a round-bottomed 96-well microtiter plate (Corning), and cultured at 37 degrees C. in a CO2 incubator for four hours. After culturing, 100 micro L of the supernatant was collected from each well, and measured the radioactivity using a gamma counter. Spontaneous release was the radioactivity from the target cells with medium in the absence of effector cells, and maximum release was the radioactivity from the target cells with 1 M HCl.
(§4) The Percentage of specific cytotoxicity was determined by calculating as following formula: % Specific lysis=[(experimental release−spontaneous release)/(maximum release−spontaneous release)]×100. Results Enhanced CDH3, EPHA4, ECT2, HIG2, INHBB, KIF20A, KNTC2, TTK and URLC10 Expression in Cancers
Furthermore, Cytotoxic activity was performed by cytotoxicity assay according to the protocols set forth in the “Materials and Methods” section above. […]

[5] = tested on: Caki-1 cancer cell line; assay: 51Cr release cytotoxicity assay; conditions: Caki-1 expressing INHBB but not HLA-A02
Experimental: as §3, §4
(§5) Furthermore, Cytotoxic activity was examined by cytotoxicity assay according to the protocols set forth in the “Materials and Methods” section above.

[6] = tested on: peptide-pulsed A24-LCL cells; assay: CTL clones by limiting dilution, specific CTL activity; conditions: HLA-A24 peptides; vs target without peptide pulse
Experimental: The dilutions were made to have 0.3, 1, and 3 CTLs/well in 96 round-bottomed micro titer plate (Nalge Nunc International). CTLs were cultured with 7×10^4 cells/well of 2 kinds of human B-lymphoblastoid cell lines, 30 ng/ml of anti-CD3 antibody, and 125 U/ml of IL-2 in total of 150 micro 1/well of AIM-V containing 5% AS. 50 micro 1/well of IL-2 was added to the medium 10 days later so that IL-2 became 125 U/ml in the final concentration. CTL activity of CTLs was tested on the 14th day, and CTL clones were expanded using the same method above.
as §1

[7] = tested on: TE5 cancer cell line; assay: 51Cr release cytotoxicity assay; conditions: TE5 expressing only ECT2
Experimental: as §3, §4, §5

[8] = tested on: TE6 cancer cell line; assay: 51Cr release cytotoxicity assay; conditions: TE6 endogenously expressing ECT2 and HLA-A24; listed as ECT2-A24-9-515
Experimental: as §3, §4, §5

[9] = tested on: peptide-pulsed T2 cells; assay: IFN-gamma ELISPOT assay (positive wells); conditions: HLA-A02 peptides; as compared to the control
Summary of the method: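 CD8+ T cells from HLA-A*2402 and/or HLA-A*0201 donors were stimulated 1:20 with autologous monocyte-derived DCs pulsed with 20 µg/ml peptide plus β2-microglobulin, in IL-7, with IL-2 added, restimulated on days 7 and 14. On day 21, IFN-γ ELISPOT against peptide-pulsed T2 or A24-LCL cells (1×10^4/well) scored wells as positive, with CTL lines confirmed by ELISA.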

[10] = tested on: peptide-pulsed T2 cells; assay: CTL line establishment, IFN-gamma ELISA; conditions: HLA-A02 peptides; vs target without peptide pulse
Summary of the method: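 CTLs expanded with MMC-inactivated B-lymphoblastoid lines, 40 ng/ml anti-CD3 and IL-2 (120 IU/ml day 1, then 30 IU/ml on days 5, 8, 11). Peptide-pulsed T2 or A24-LCL stimulators (1×10^4/well) incubated with cultured wells or limiting-dilution clones as responders; IFN-gamma detected by ELISPOT (positive wells) and ELISA (established CTL lines).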

[11] = tested on: COS7 transfected with full length HIG2 gene and HLA-A*0201; assay: Specific CTL activity against transfected target cells; conditions: CTL line raised by the peptide; vs control transfectants; listed as HIG2-A02-9-15
Experimental: as §1, §2
(§6) The established CTL line raised against these peptides were examined for their ability to recognize the target cells expressing HIG2 and HLA-A*0201. […] 293T or COS7 transfected with full length ECT2 but not HLA-A*0201 and 293T or COS7 transfected with HLA-A*0201 but not full length ECT2 (or replaced other gene e.g. FoxP3 or TTK) were prepared as controls.

[12] = tested on: target cells pulsed with the peptide; assay: 51Cr release cytotoxicity assay
Experimental: as §3, §4

[13] = tested on: PK59 cancer cell line; assay: 51Cr release cytotoxicity assay; conditions: PK59 expressing KIF20A but not HLA-A24
Experimental: as §3, §4, §5

[14] = tested on: 293T transfected with full length HIG2 gene and HLA-A*0201; assay: Specific CTL activity against transfected target cells; conditions: CTL line raised by the peptide; vs control transfectants; listed as HIG2-A02-9-8
Experimental: as §1, §2, §6

[15] = tested on: COS7 transfected with full length ECT2 gene and HLA-A*2402; assay: as above; conditions: CTL clone or line raised by the peptide, vs control transfectants
Experimental: as §1, §2
The established CTL line raised against these peptides were examined for their ability to recognize the target cells expressing ECT2 and HLA-A*2402. […] COS7 transfected with full length ECT2 but not HLA-A*2402 and COS7 transfected with HLA-A*2402 but not full length ECT2 (replaced other gene e.g. URLC10 or INHBB) were prepared as controls.

[16] = tested on: PK45P cancer cell line; assay: 51Cr release cytotoxicity assay; conditions: PK45P expressing both KIF20A and HLA-A24; listed as KIF20A-A24-9-305
Experimental: as §3, §4, §5

SEQ ID NO: 178: HLA-A*2402 binding 9-mer peptide derived from KIF20A (IFSIRILHL)
IFN-gamma production by IFN-gamma ELISPOT assay [1]: potent IFN-gamma production | Specific CTL activity against COS7 transfected with both KIF20A and HLA-A24 ([2]; listed as KIF20A-A24-9-383): highest specific CTL activity; also recorded: high specific CTL activity | Establishment of CTL line, specific CTL activity against the peptide-pulsed target determined by ELISA [3]: CTL lines were established

LYLKLLPYV [SEQ ID NO: 395]
Cytotoxic activity against MIAPaca2 (Cr-release assay) ([4]; INHBB-positive, compared to CAki-2, listed as INHBB-A24-9-180): remarkably high cytotoxic effect; also recorded: high specific cytotoxic activity | Cytotoxic activity against Caki-1 (Cr-release assay) [5]: did not show significant specific cytotoxic activity

SEQ ID NO: 194: HLA-A*2402 binding 10-mer peptide derived from KIF20A (KVYLRVRPLL)
IFN-gamma production by IFN-gamma ELISPOT assay [1]: potent IFN-gamma production | CTL activities of CTL clones against the peptide-pulsed target [6]: potent and specific CTL activities | Specific CTL activity against COS7 transfected with both KIF20A and HLA-A24 ([2]; listed as KIF20A-A24-10-66): highest specific CTL activity | Establishment of CTL line, specific CTL activity against the peptide-pulsed target determined by ELISA [3]: CTL lines were established

TYPPFVNFF [SEQ ID NO: 80, TYPPFVNFF]
Cytotoxic activity against TE5 (Cr-release assay) [7]: did not demonstrate the cytotoxic activity | Cytotoxic activity against TE6 (Cr-release assay) [8]: remarkably high cytotoxic effect; also recorded: very potent cytotoxic activity

TLLSIFVRV [SEQ ID NO: 116]
IFN-gamma production by IFN-gamma ELISPOT assay [9]: potent IFN-gamma production | Establishment of CTL line, specific CTL activity against the peptide-pulsed target determined by ELISA [10]: CTL lines were established | Specific CTL activity against COS7 transfected with both HIG2 and HLA-A02 [11]: highest specific CTL activity; also recorded: high specific CTL activity

KLNTEIRDV [SEQ ID NO: 379, KLNTEIRDV]
Cytotoxic activity of CTL line against target cells pulsed with the peptide (Cr-release assay) [12]: very potent specific cytotoxic activity

SFFEIYNELL [SEQ ID NO: 186]
Cytotoxic activity against MIAPaca2 (Cr-release assay) ([4]; Miapaca2 expressing both KIF20A and HLA-A24, listed as KIF20A-A24-10-304): remarkably high cytotoxic effect; also recorded: very potent specific cytotoxic activity | Cytotoxic activity against PK59 (Cr-release assay) [13]: did not show significant specific cytotoxic activity

YLLGVVLTL [SEQ ID NO: 114]
IFN-gamma production by IFN-gamma ELISPOT assay [9]: potent IFN-gamma production | Establishment of CTL line, specific CTL activity against the peptide-pulsed target determined by ELISA [10]: CTL lines were established | Specific CTL activity against 293T transfected with both HIG2 and HLA-A02 [14]: highest specific CTL activity; also recorded: high specific CTL activity

SYVEeEMPQI (SYVEEEMPQI; not fully specified; printed as SYVEeEMPQI) [SEQ ID NO: 100]
IFN-gamma production by IFN-gamma ELISPOT assay [1]: potent IFN-gamma production | Specific CTL activity against COS7 transfected with both ECT2 and HLA-A24 ([15]; listed as ECT2-A24-10-40): highest specific CTL activity; also recorded: high specific CTL activity | CTL activities of CTL clones against the peptide-pulsed target [6]: potent and specific CTL activities | Establishment of CTL line, specific CTL activity against the peptide-pulsed target determined by ELISA [3]: CTL lines were established

DFQDsVFNDL (DFQDSVFNDL; not fully specified; printed as DFQDsVFNDL) [SEQ ID NO: 101]
IFN-gamma production by IFN-gamma ELISPOT assay [1]: potent IFN-gamma production | Specific CTL activity against COS7 transfected with both ECT2 and HLA-A24 ([15]; listed as ECT2-A24-10-101): highest specific CTL activity; also recorded: high specific CTL activity | Establishment of CTL line, specific CTL activity against the peptide-pulsed target determined by ELISA [3]: CTL lines were established

FFEIYNELL [SEQ ID NO: 174]
Cytotoxic activity against PK59 (Cr-release assay) [13]: did not show significant specific cytotoxic activity | Cytotoxic activity against PK45P (Cr-release assay) [16]: remarkably high cytotoxic effect; also recorded: very potent cytotoxic activity

GLNPLTSYV [SEQ ID NO: 376, GLNPLTSYV]
Cytotoxic activity of CTL line against target cells pulsed with the peptide (Cr-release assay) [12]: very potent specific cytotoxic activity
